Assay [1] concerns RP-B-01, RP-B-02 and T24 cell lines. As to the kind of experiment: Alamar blue combination study with cisplatin. The assay is classed as cell-based, human. Particulars: combined with increasing concentrations of cisplatin, 72 h. Here is the method:
FIGS. 30A-30C. […] RP-B-01, RP-B-02, and T24 cell lines were treated with increasing concentrations of cisplatin in combination with a single dose of either APX2009 or APX2014 as indicated (n=3±SE). Cell proliferation was normalized to Saline control and expressed as Fold Change. Combination index (CI) values calculated with Compusyn for combination of APX inhibitors and cisplatin. CI values indicated mainly additivity (0.95-1.2) to synergy (0.8-0.94).
Bladder cancer cell lines (BLCAb001 (RP-B-01) and BLCAb002 (RP-B-02) maintained in RPMI growth medium with 10% FBS were plated at 4,000 cells/well in poly-D-lysine treated 96-well clear bottom black plates and grown overnight in 5% CO2 at 37° C. Cells in monolayer were then treated with increasing concentrations of redox-specific inhibitor APX3330, APX2014 or APX2009 and serially diluted 1:2 in a 5-point dose scheme. For combination studies, cells were treated with both cisplatin and APX compounds to determine efficacy. After 72 hours, fresh RPMI medium with 5% FBS was exchanged, and a fluorescent metabolic indicator, Alamar Blue was added to each well at 10% final concentration. After a 4 hour incubation, plates were read on a Synergy H4 (Bio-Tek) plate reader. […]
APE1/Ref-1 inhibition enhances cisplatin's therapeutic effect. […] Cell proliferation was assessed using Alamar blue 72 h after drug treatment.

The test system of the next assay is MCF-7 tumor cells. As to the kind of experiment: MTS cell survival assay MCF-7. Type of assay: cell-based, human. To be noted: about 24 or 72 h. Here is the method:
Decreased cancer cell survival. MCF-7 or OVCAR-3 cells (about 2-4,000) were aliquoted into each well of a 96-well plate in triplicate and allowed to adhere overnight. APX3330 (RN3-3) was added to the cultures. After about 24 or 72 h, about 0.05 mg/mL 3-(4-5-Dimethylthiazol-2-yl)-5-(3-carboxymethoxyphenyl)-2-(4-sulfophenyl)-2H-tetrazolium salt (MTS) reagent was added to each well and incubated at about 37° C. for about 4 h followed by absorbance measurement at 490 nm. The values were standardized to wells containing media alone. […] Similar effects can be seen in multiple myeloma, prostate, non-small cell lung carcinoma, colon, and glioma derived cells.

In the next assay the test system is HL-60 cells. As to the kind of experiment: HL-60 differentiation and apoptosis with retinoic acid. The assay is classed as cell-based. As to the method: APX3330 in combination with Retinoic Acid. […] HL-60 cells were treated with either vehicle (EtOH; control), APX3330, retinoic acid (RA) or APX3330 and RA at the concentrations indicated and morphology determined on day six. Morphological analysis indicated an increase in the differentiation of the HL-60 cells treated with APX3330 (RN3-3).

The subject of another assay is pancreatic tumor cells. As to the kind of experiment: Annexin V/PI apoptosis assay in pancreatic tumor cells. Type of assay: cell-based. As to the method: APX3330 in combination with chemotherapeutic Gemcitabine. […] To analyze the cells for apoptosis, cells were plated and allowed to attach overnight. Cells were treated with APX3330 alone or with gemcitabine. Apoptosis was assayed about 24 and 48 hr following treatment. Cells were trypsinized, pelleted, washed in ice-cold PBS, and resuspended in 1× binding buffer [about 10 mmol/L HEPES/NaOH (pH 7.4), 140 mmol/L NaCl, 2.5 mmol/L CaCl2]. Apoptosis was analyzed using the Alexa Fluor 488 AnnexinV from Vybrant Apoptosis Assay kit in combination with propidium iodide (Molecular Probes, Eugene, Oreg.) as described previously Clinical Cancer Research 13, 260-267, Jan. 1, 2007. Cells that were strongly Annexin positive were considered positive for apoptosis. The samples were analyzed by flow cytometry in the Indiana University Cancer Center flow cytometry facility.
APX3330 in combination with Methoxyamine-pancreatic cells. […] To analyze the cells for apoptosis, cells were plated and allowed to attach overnight. […] Apoptosis was analyzed using the Alexa Fluor 488 Annexin V from Vybrant Apoptosis Assay kit in combination with propidium iodide (Molecular Probes, Eugene, Oreg.) as described previously Clinical Cancer Research 13, 260-267, Jan. […] The samples were analyzed by flow cytometry in the Indiana University Cancer Center flow cytometry facility.

Assay [2] deals with VEGF release from Hey-C2, SKOV-3X, Panc1, PaCa-2 and Igrov cells. As to the kind of experiment: VEGF ELISA on cancer cell supernatants. Type of assay: cell-based, human. Particulars: normoxia and hypoxia, about 24 hrs. As to the method:
Inhibition of VEGF release. VEGF enzyme-linked immunosorbent assay (ELISA). Various cancer cell lines were plated in a 24-well plate and treated in duplicates with for about 24 hrs in normoxic (about 21% oxygen) or hypoxic (about 2% oxygen) condition. The supernatants of cells were collected and subjected to an ELISA assay with a kit specific for human VEGF according to the manufacturer (R&D Systems, Minneapolis, Minn.) VEGF ELISA assay results were read in a 96-well format plate reader by measuring absorbance at 450 nm with correction at 540 nm. Hypoxia induced an increase in VEGF release (FIG. 2). (For FIGS. 2-7, black bars=normoxia; gray bars=hypoxia.)
VEGF ELISA Assays. Hey-C2 (ovarian cancer), SKOV-3X (ovarian cancer), Pancl (pancreatic cancer), PaCa-2 (pancreatic cancer), and Igrov (ovarian cancer) cells were plated in a 24-well plate and treated in duplicates with (RN3-3 e) at different concentrations for about 24 hrs in normoxic (about 21% oxygen) or hypoxic (about 2% oxygen) condition. The supernatants of cells were collected and subjected to an ELISA assay with a kit specific for human VEGF according to the manufacturer (R&D Systems, Minneapolis, Minn.). VEGF ELISA assay results were read in a 96-well format plate reader by measuring absorbance at 450 nm with correction at 540 nm.
A general note: An ELISA detects its analyte on a solid surface through an enzyme-linked reagent.

This is an account of results in US11331294B2, “Benzoquinone derivative E3330 in combination with chemotherapeutic agents for the treatment of bladder cancer” (Indiana University Research and Technology Corporation, priority 2007, dated 2022).

On to `CCC/C(=C\C1=C(OC)C(=O)c2ccccc2C1=O)C(=O)N(CC)CC` [APX2009, [(2E)-2-[(3-methoxy-1,4-dioxo-1,4-dihydronaphthalen-2-yl)methylidene]-N,N-diethylpentanamide]], for which the “cellular proliferation when combined with cisplatin” value in assay [1] is reported as “further reduction in cellular proliferation”.

On to `CCCCCCCCC/C(=C\C1=C(C)C(=O)C(OC)=C(OC)C1=O)C(=O)O` [APX3330], for which the “killing of MCF-7 tumor cells” value in the assay on MCF-7 tumor cells is “dose dependently killed”. The “increase in cells undergoing apoptosis, APX3330 and RA compared with RA alone” value in the assay with HL-60 cells (25 μM APX3330, day 6) is recorded as around 1.5. Besides, in the assay with HL-60 cells (addition of APX3330 to RA), the “reduction of RA required for same level of differentiation (CD11)” value was “about 1000 fold”. Further, the “cell differentiation in combination with retinoic acid” value with HL-60 cells (day six, morphology) is recorded as “enhanced the effects of retinoic acid on promoting cell differentiation”. In addition, in the assay on HL-60 cells (lower doses of RA), the “HL-60 cells undergoing apoptosis (annexin/PI) at lower doses of RA” value is on record as “did not significantly enhance the level of HL-60 cells undergoing apoptosis”. Besides, the “apoptosis in combination with methoxyamine” value with pancreatic tumor cells (about 24 and 96 hr) is recorded as “enhanced the apoptosis inducing effects of methoxyamine”. In the assay with pancreatic tumor cells (gemcitabine about 0.25 μM, 24 and 48 hr), the “apoptosis in combination with gemcitabine” value is “enhanced the apoptosis inducing effects of gemcitabine”. Moreover, the VEGF release entry in assay [2] was “reduced the amount of VEGF release”.
